Key:
[1] = test system: F32-ART5 and F32-TEM parasites; assay: Recrudescence assay; format: cell-based, Plasmodium falciparum; settings: 48 h exposure; 2.5 µM 3i or 18 µM ART; log-rank Mantel-Cox test
Procedure: Recrudescence assay was performed to evaluate the ability of the F32-ART5 parasites to survive drug exposure comparatively to the F32-TEM parasites. D-sorbitol synchronized ring-stages at 3% parasitemia (2% hematocrit) were exposed to drug for 48 h. After drug exposure, parasite cultures were washed with RPMI-1640 medium and replaced in normal drug-free culture conditions. The time to parasite recrudescence was determined as the time required to reach the 3% initial parasitemia. […] Each experiment was performed for F32-ART5 and F32-TEM and cultivated in parallel in the same conditions to generate paired results. This was carried out at least three times independently. A statistical analysis (log-rank Mantel–Cox test) was carried out on data thanks to a Kaplan–Meier survival analysis (using GraphPad Prism software) considering censored data.
Figure S48. 13C NMR spectrum of 2i in CDCl3, on a Bruker ARX 101 spectrometer
2. […]
3. Studying the effect of (3i) on the liver stage development of P. falciparum Cryopreserved primary human hepatocytes were seeded in 96 well plates with a pre-determined seeding dose that gave a single dense layer of attached hepatocytes. […]
The culture medium with or without drugs was refreshed every 48 hours and two independent plates were studied. […] Plates were subjected to quantification using an automated plate scanner. […]

[2] = test system: P. falciparum ART-sensitive strain F32-TEM; assay: Standard in vitro chemo-sensitivity assay, F32-TEM; format: cell-based; settings: Plasmodium falciparum, F32, 48 h, read-out: Mean ± SEM EC50 values F32-TEM
Procedure: (§1) The Plasmodium falciparum ART-resistant strain F32-ART5 and its tween ART-sensitive strain F32-TEM [33, 41] were cultivated at 37 °C with 5% CO2 in human red blood cells (EFS, French Blood Bank) diluted to 2% hematocrit in RPMI-1640 medium (Biowest, Nuaillé, France) supplemented with 5% human serum (EFS, French Blood Bank), as previously reported.
(§2) The chemosensitivity assay was carried out in 96-well culture plates on synchronized ring-stage parasites at 1% parasitemia obtained after D-sorbitol treatment. The antiplasmodial activities were evaluated using the SYBR Green I method. Parasites were exposed for 48 h to a range of concentrations of the different tested compounds. Each drug concentration was tested in triplicates. Parasite pellets were then washed in 1× PBS prior to lysing red blood cells at −20 °C overnight. Then, the plates were thawed and 100 µL of each well were transferred into a black 96-well plate. Next, 100 µL per well of SYBR Green I (Thermo Fisher) diluted at a final concentration of 2× in lysis buffer (20 mM Tris base pH 7.5, 5 mM EDTA, 0.008% w/v saponin, 0.08% w/v Triton X-100) were added and left to incubate for 1 h at room temperature prior to reading the plates on BioTek FLx800 Microplate Fluorescence Reader (λexcitation = 485 nm, λemission = 528 nm). Relative EC50 values were determined using GraphPad Prism software.

[3] = test system: P. falciparum ART-resistant strain F32-ART5; assay: Standard in vitro chemo-sensitivity assay, F32-ART5; format: cell-based; settings: Plasmodium falciparum, F32, 48 h, read-out: Mean ± SEM EC50 values F32-ART5
Procedure: as §1, §2

[4] = test system: Pf3D7 (3D7 chloroquine-sensitive strain); settings: Figure 2; cited from earlier work
HepG2 = settings: Figure 2; cited from earlier work
[5] = test system: PfFCR-3 (FCR-3 multidrug-resistant strain); parameters: method as in PMID 28291694; settings: Figure 2; cited from earlier work

SMILES	Recrudescence of F32-ART5 compared with F32-TEM after drug exposure [1]	EC50 [2] [µM]	EC50 [3] [µM]	EC50 [4] [µM]	CC50 (HepG2) [µM]	EC50 [5] [µM]
C[C@@H]1CC[C@H]2[C@@H](C)C(=O)O[C@@H]3O[C@@]4(C)CC[C@@H]1[C@]32OO4 [Artemisinin, reference compound]	significant faster	0.019 ± 0.003	0.011 ± 0.003	–	–	–
Cc1c(/C=N/Nc2ccnc3cc(Cl)ccc23)[n+]([O-])c2cc(Cl)ccc2[n+]1[O-] [QdNO 19]	–	–	–	0.24	> 241	2.8
